Data from a melting point compilation (Tetko et al.; mined from patent text by program, amines drawn as free bases though some values may be those of a salt).

melting point [°C]	SMILES
118 to 121	CC(C)C(=O)Nc1ccc(OCC(O)CNC(C)(C)C)c(C#N)c1 (stereo not drawn)
79 to 81	COC(=O)C(=Cc1cc(OC)cc(OC)c1)c1ccc(Oc2ccc(CBr)cc2)cc1
255 to 256	COc1cccc(C(=O)Nc2nc(-c3cccc(C#N)c3)c(-c3ccncn3)s2)c1
134 to 136	CCO[C@H]1CCN(C(=O)c2cc(-c3ccccc3)c(=O)n3c2-c2cc(Cl)ccc2CC3)C1
183 to 185	CC1=CC(c2cccc(Cl)c2)C2=C(CC(C)(C)CC2=O)N1 (stereo not drawn)
178 to 180	CC(C)(C)OC(=O)N1Cc2ccc(COc3cccc4c3CN(C3CCC(=O)NC3=O)C4=O)cc2C1 (stereo not drawn)
189 to 190	CCOC(=O)NNc1cc(C)c(-c2cccc(C#N)c2)nn1
190 to 195	CCCCCCC(C(=O)N[C@@H](CC(=O)O)C(=O)O)n1cnc2cc(-c3ccccc3-c3nn[nH]n3)ccc21 (stereo partly drawn)
93 to 94	CC(C)(C)OC(=O)NCCCCCN(OCc1ccccc1)C(=O)CCC(=O)O
117 to 118	O=C(c1ccc2nonc2c1)N1CC=CC1
153 to 154	CC1(C)OC(c2ccc(S(N)(=O)=O)c(F)c2)=C(c2cc(F)cc(F)c2)C1=S
> 230	Cc1c(F)cccc1NC(=O)c1ccccc1CN1C(=O)C2(COc3cc4c(cc32)CCO4)c2ccccc21 (stereo not drawn)
203 to 204	CCCCOc1c(CNC(=O)OCC2c3ccccc3-c3ccccc32)n(CC(C)C)c(=O)c2ccc(-c3nc(C(=O)OCC)cs3)cc12
69.5 to 70.1	CCCCOc1ccccc1C(=O)C=Cc1cc(OC)cc(OC)c1
110	CS(=O)(=O)Cc1c(C(=O)c2cnoc2C2CC2)ccc(S(C)(=O)=O)c1Cl
144 to 146	CCOC(=O)c1ccc(NCc2ccc(OCc3ccccc3)cc2)cc1
44	CC(=O)CC(=O)NC1CCCCCCC1
112 to 114	Cc1ccc(S(=O)(=O)N(c2ccc(Cl)cc2[N+](=O)[O-])C(C)C)cc1
241 to 243	CC(=O)Oc1cc(-c2nc3ccccc3[nH]c2=O)cc([N+](=O)[O-])c1OC(C)=O
106 to 112	Cc1cc(F)ccc1-c1nc(NC(C)(C)CO)nc2c1ccc(=O)n2-c1ccccc1F
146 to 147	CCCCc1nc2ccc(C(C)O)cc2c(=O)n1Cc1ccc(-c2ccccc2-c2nnn[nH]2)cc1 (stereo not drawn)
136 to 138	CN1C(=O)c2ccc(NCC(O)CCl)cc2C1=O (stereo not drawn)
212 to 215	Fc1ccc(-c2[nH]c(C3CCN(Cc4ccccc4)CC3)nc2-c2ccncc2)cc1
139 to 140	CCOC(=O)c1sc(Oc2ccc(-n3cccc3)cc2)c2c1CCc1cnn(C)c1-2

melting point [°C]	SMILES
100 to 102	Cc1c(C)c2c(c(C)c1NCc1ccc3c(c1)OCO3)C(c1ccc(C(C)C)cc1)C(C)(C)O2 (stereo not drawn)
228	CC(=O)NNc1nc(-c2ccccc2)c2cc(Cl)ccc2n1
128	CC(C)(C)OC(=O)N1CCC2(C=Cc3ccccc32)CC1
126 to 128	CCNc1nc(CC)c(-c2ccncc2)s1
90.6 to 91.4	CCCCc1ccc(NC(=O)NOCc2ccccc2)cc1
205 to 206	CC1(C)CC(c2ccccc2)Nc2c(C(=O)O)cnn21 (single isomer, unassigned; (-))
131 to 132	Fc1cc2nn(CCC#Cc3ccccn3)nc2cc1F
169 to 171	COc1ccc2c(c1)CC(=O)N2Nc1ccncc1
160 to 162	Cc1cn([C@H]2CC[C@@H]3CC(=O)N[C@H]2C3)c(=O)n(COCc2ccccc2)c1=O
93 to 94	Cc1cc(Nc2nccc(-c3sc(CO)nc3C)n2)ccc1N1CCOCC1
180 to 182	CNc1cc(Oc2ccc3c(c2)OCCN3C(=O)Nc2ccc(C)c(C(F)(F)F)c2)ncn1
124 to 131	CCCCNc1c(C)cccc1C
44 to 46	COc1ccc(SC2=C(C(=O)NO)CCC2=CCCc2ccccc2)cc1OC
99 to 100	CCc1cc(NCc2ccc(-c3ccccc3C#N)cc2)n2ccnc2n1
150	COc1ccc(CCN(C)CCOc2ccc(NC(=O)c3cc(SC)cc4c(=O)c5ccccc5[nH]c34)cc2)cc1OC
209 to 210	Nc1ncc2c(n1)-c1ccc(Cl)cc1C(c1ccccc1)=NC2
186 to 190	Nc1nc(NCCc2ccc(Oc3nc(N)n4nc(-c5ccco5)nc4n3)cc2)nc2nc(-c3ccco3)nn12
66 to 67	C=CCc1cc2c(cc1O)C(C)(C)C(O)O2 (stereo not drawn)
53 to 57	Cn1nc(N=Cc2ccccc2)nc1NCC(O)COc1cccc(CN2CCCCC2)c1 (stereo not drawn)
218 to 220	CC(C)(C)c1ccc([C@@H]2C[C@H]3C=C(c4c[nH]c(-c5ccc(F)c(F)c5)c4-c4ccncc4)CCN3C2)cc1
234	CCOC(=O)C1=C(C)Nc2nc(N3CCOCC3)nc(N3CCOCC3)c2C1c1ccccc1C (stereo not drawn)
98 to 99	O=[N+]([O-])c1cccc(S(=O)(=O)NC(CO)(CO)CO)c1
210 to 212	CSc1c(CC(=O)O)ccc2c1[nH]c1ccccc12
94 to 96.5	C=CCc1cc(C2=NNC(=O)CC2)ccc1OCC(O)CNC(C)C (stereo not drawn)

melting point [°C]	SMILES
248 to 251	COc1cc(Nc2c(C#N)cnc3cc(-c4ccc(C=O)cc4)ccc23)c(Cl)cc1Cl
228 to 231	COc1ccc(C(=O)Nc2ccc(F)c(F)c2)cc1NS(=O)(=O)c1cc(Cl)cc(Cl)c1
102	CO/N=C/c1ccc2c(c1Cn1ccnc1)OCO2
224 to 226	Cc1cc(N)n(C(=NO)c2cccc([N+](=O)[O-])c2)n1
161 to 162	CCOC(=O)c1c(CN(CC)CC)nc2sc3c(c2c1-c1ccc(OC)c(OC)c1)CCN(S(=O)(=O)c1ccccc1)C3
95 to 98	COCNC(=O)OC(C(Oc1ccc(-c2ccccc2)cc1)n1cncn1)C(C)(C)C (stereo not drawn)
229 to 230	CNc1nc(Cc2c(Cl)cccc2Cl)nc(Nc2ccc(C#N)cc2)n1
83 to 86	O=C(Cc1ccccc1)c1cc(Br)ccc1O
> 250	Nc1ncnc2c1nc(COCP(=O)(O)O)n2CCC1CCCCC1
68 to 72	CCOC(=O)c1cc(CC)cnc1CNC(C)(C(N)=O)C(C)C (stereo not drawn)
163 to 165	O=C(O)C(=O)c1ccc(OCCCCc2cccnc2)cc1
94 to 96	O=CN1CCN(c2nc(N3CCSCC3)c3ncnc(NCc4ccccc4)c3n2)CC1
302 to 305	Cn1cc2c(O)cc(-c3ccc(Cl)cc3)nc2n1
250 to 254	CCNc1c([N+](=O)[O-])cc2c(=O)c(C(=O)O)cn(-c3cc(N)c(F)cc3F)c2c1C
128 to 130	COc1cc(C)c(C=CC(C)=CC=CC(C)=CCO)c(C)c1C
67 to 68	C=CC(=O)N(CC)c1cn(-c2cccnc2)nc1Cl
81 to 83	Cc1nc(-c2ccc(Cl)cc2Cl)c(Br)n1C(F)F
250	CC(=O)Oc1ccc2nc(C(N)=O)nc(O)c2c1
42 to 43	COc1ccccc1C=CCCCCCC(=O)O
135 to 138	CCc1nc2c(cnn2CC)c(NC2CCOCC2)c1CNC(=O)c1cccc(C(=O)NCc2ccc(C)c(-c3cccc(CN4CCNCC4)c3)c2)c1
93	O=S(=O)(F)c1ccccc1S(=O)(=O)N1CCC1
152 to 154	CCc1nc2c(N)nc3cc(OCc4ccc(C(F)(F)F)o4)ccc3c2s1
110 to 112	CC(=O)SCC(CC#N)C(=O)O (stereo not drawn)
120 to 121	C=Cc1ccc(NC(C)=O)nc1

melting point [°C]	SMILES
93 to 94.5	CCCc1c(OCC(=O)OC)ccc2c1OC(CCCCCCO)CC2=O (stereo not drawn)
198	Cc1ccc(CCCO)c(NCc2ccc3nc(NCCCN4CCOCC4)n(Cc4cccc5c4ncn5C)c3c2)c1
87 to 88	CCCCOC(=O)CS(=O)(=O)C=C1SC=CS1
138 to 140	NCCCCn1cnc(-c2ccc(F)cc2)c1
165 to 167	CC(C)c1nc(CN2C(=O)C3(COc4cc5c(cc43)OCO5)c3c(Cl)cccc32)no1 (stereo not drawn)
107 to 109	Cc1ccc(-c2cncnc2C#N)cc1
169 to 171	CSc1nn2c(N3CCN(C)CC3)nc(C)nc2c1S(=O)(=O)c1ccccc1
122 to 127	COc1cccc(C(=NO)c2ccc(F)cc2F)c1
191 to 193	CCOC(=O)c1ncc2[nH]c3ccc(S(=O)(=O)N(C)C)cc3c2c1COC
121 to 123	COC(=O)c1c(Oc2ccc(Cl)cc2N)c2ccccc2n1Cc1ccccc1
126	Cn1nnc2cccc(C=O)c21
182 to 186	COC(=O)c1c(S(=O)(=O)NC(=O)Nc2nc(OC)cc(OC)n2)ccn1C
166 to 168	O=c1cc2c(nn1-c1ccc(Cl)cc1)-c1cnccc1CC2
50 to 51	C#CC(C)NC(=O)CCCCl (stereo not drawn)
75 to 77	COc1cc2c(c(Cl)c1Cl)C(=O)C(C)(CC1CCCC1)C2 (stereo not drawn)
258 to 260	Nc1ncc2[nH]c3ccccc3c2n1
75 to 77	COC(=O)c1c(C)sc(C)c1N
233 to 235	O=C1N=C(N2CCOCC2)SC1=Cc1cccc(-c2ccc(O)c(F)c2)c1
186 to 188	CCCc1nc2c(N)nc(C)c(C)c2n1CCCS(=O)(=O)c1ccc(Cl)cc1
156 to 157	CCC(CC)c1ccc(Cl)c2nc3n(c12)CCCCN3c1cnc(N(C)C)cc1C
113 to 114	O=C(NC(Cl)C(Cl)(Cl)Cl)c1ccccc1O (stereo not drawn)
242 to 243	O=C(NC1CC1)c1[nH]c2ccc(Cl)cc2c1S(=O)(=O)c1ccccc1
203 to 205	CCCc1cnc(NC(=O)C2c3ccccc3Oc3ccccc32)o1

SMILES	melting point [°C]
CC(=O)OC1CC2CCC3C(CCC4(C)C(O)C(N5CCCCC5)CC34)C2(C)CC1N1CCOCC1 (stereo not drawn)	148 to 152
CCCc1c(C(=O)C(C)C)c2ccc(C(N)=O)cc2n1Cc1ccccc1NC(=O)NC	222 to 223
CN1CCN2c3ccc(Cl)cc3C(c3ccco3)=NCC2C1 (stereo not drawn)	> 240
